Source: US20060281807A1, “Quassinoid compositions for the treatment of cancer and other proliferative diseases” (Tapestry Pharmaceuticals, Inc., priority 2005, published 2006)
Several values for one entry are separate records, joined by “and”; a condition that tells them apart may be missing. Identical values can stand only once. Like-named read-outs stand apart in the source and are kept apart here.

How the values were obtained:
[1] = system: CCRF-CEM (human leukemia); experiment: Disk diffusion assay, zone of inhibition, CCRF-CEM; assay type: cell-based; settings: 1 mg/mL
human CFU-GM = assay type: cell-based; settings: 1 mg/mL
Protocol: A disk diffusion assay was performed to define the differential cell killing ability of 15-O-(3′-hydroxy-3′-isopropyl-4′-methylpentanoyl)bruceolide. Seven cell types were assayed: L1210 (ATCC CCL-219) (murine leukemia), CCRF-CEM (ATCC CCL-119) (human leukemia), Colon 38 (murine colon adenocarcinoma), HCT116 (ATCC CCL-247) (human colorectal carcinoma), H125 (human lung carcinoma). The murine and human granulocyte/macrophage progenitor cell line (CFU-GM), served as controls.
For CFU-GM cells, the femoral marrow of BD2F1 mice was flushed with MEM alpha (2 mL per femur). The cells were passed through an 18 gauge needle twice and the monodispersed suspension was counted. A total of 1.5×10^6 cells were plated in 3 mL of 0.3% agar with the addition of 10% L cell conditioned media, which provided colony stimulating factor, in MEM-alpha plus 10% BCS. For human CFU-GM, the cells were obtained from Poietic Technologies, Inc. (Gaithersburg, Md.) and washed twice with PBS before being titered and added to the agar mixture. The same cell number, culture conditions, and conditioning factors used with respect to the murine CFU-GM cells were used with the human cells, except that the cultures were assessed after 10 days of incubation.
A 15 μl sample of each compound was dropped onto a 6.5 mm disk (Baxter filter disks). The disks were allowed to dry overnight and then placed close to the edge of a petri dish. Depending upon the cell type, the dishes were incubated for 7 to 10 days, and examined by an inverted stereo-microscope (10×) for measurement of the zone of inhibition. The zone of inhibition was measured from the edge of the filter disk to the beginning of normal-sized colony formation. The diameter of the filter disk, 6.5 mm, was arbitrarily taken as a zone of 200 units. Compounds that were selective for killing solid tumors, as compared to leukemia or normal cells (“solid tumor selective”) were defined as those compounds which produced a difference in zones between solid tumor cells and either normal or leukemia cells of at least 250 units. The results of this analysis are set forth in Table 4, which illustrates the relative diameters of the zones of inhibition by various drugs on the growth of the respective cell types at various drug dilutions.

[2] = system: H125 (human lung carcinoma); experiment: Disk diffusion assay, zone of inhibition, H125; assay type: cell-based; settings: 1 mg/mL
HCT-116 cells = experiment: Clonogenic assay, HCT-116; assay type: cell-based, human; settings: colonies at 7 days
[3] = no dilution, 15 μl on disk, 6.5 mm = 200 units

## COC(=O)[C@@]12OC[C@@]34C1[C@@H](OC(=O)CC(O)(C(C)C)C(C)C)C(=O)O[C@@H]3C[C@H]1C(C)=C(O)C(=O)C[C@]1(C)[C@H]4[C@@H](O)[C@@H]2O (some centres unmarked) [15-O-(3′-hydroxy-3′-isopropyl-4′-methylpentanoyl)bruceolide]
[1]; dilution 1/10
  zone of inhibition, CEM: 650 units and 700 units
[1]; dilution 1/100
  zone of inhibition, CEM: 100 units and 150 units
Human CFU-GM; dilution 1/10
  zone of inhibition, human CFU-GM: 900 units
Human CFU-GM; dilution 1/100
  zone of inhibition, human CFU-GM: 600 units
[2]; dilution 1/1000
  zone of inhibition, H-125 M: 0 units
[2]; [3]
  zone of inhibition, H-125 M: >1000 units
HCT-116 cells; HCT-116, 2 Hour Exposure
  Concentration Required for 10^−1 Survival Fraction: >10 μg/mL
HCT-116 cells; HCT-116, 24 Hour Exposure
  Concentration Required for 10^−1 Survival Fraction: 1 × 10^0 μg/mL
HCT-116 cells; HCT-116, Continuous Exposure
  Concentration Required for 10^−1 Survival Fraction: 7 × 10^−3 μg/mL

## COC(=O)[C@@]12OC[C@@]34C1[C@@H](OC(=O)C=C(C(C)C)C(C)C)C(=O)O[C@@H]3C[C@H]1C(C)=C(O)C(=O)C[C@]1(C)[C@H]4[C@@H](O)[C@@H]2O (some centres unmarked) [15-O-(3′-isopropyl-4′-methyl-2′-pentenoyl)-bruceolide]
[1]; dilution 1/10
  zone of inhibition, CEM: 800 units
[1]; dilution 1/100
  zone of inhibition, CEM: 400 units
Human CFU-GM; dilution 1/10
  zone of inhibition, human CFU-GM: >1000 units
Human CFU-GM; dilution 1/100
  zone of inhibition, human CFU-GM: 550 units
[2]; dilution 1/10
  zone of inhibition, H-125 M: 1100 units
[2]; dilution 1/100
  zone of inhibition, H-125 M: 500 units
[2]; dilution 1/1000
  zone of inhibition, H-125 M: 100 units
[2]; [3]
  zone of inhibition, H-125 M: >1000 units
HCT-116 cells; HCT-116, 2 Hour Exposure
  Concentration Required for 10^−1 Survival Fraction: >10 μg/mL
HCT-116 cells; HCT-116, 24 Hour Exposure
  Concentration Required for 10^−1 Survival Fraction: 1.5 × 10^0 μg/mL
HCT-116 cells; HCT-116, Continuous Exposure
  Concentration Required for 10^−1 Survival Fraction: 1.5 × 10^−3 μg/mL
